From patent US9365541B2, “Compounds for use in the treatment of parasitic diseases” (IRBM—SCIENCE PARK S.P.A., priority 2012, dated 2016)

Experiments:
human HDAC1 = molecular target: T1, human HDAC1 (Homo sapiens, UniProt Q13547); test: Homo sapiens HDAC1 inhibition assay (Fluor-de-Lys, enzymatic); type: biochemical; settings: human HDAC enzymatic assay; read-out: hHDAC IC50
T1 construct: made in house; host or cells: HeLa (ATCC CCL-2), mammalian cells
Summary of the method: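 Product developed with trypsin developer containing 2 μM TSA to stop the reaction; fluorescence measures deacetylase activity, inversely related to inhibition.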

[1] = tested on: Plasmodium falciparum 3D7; test: P. falciparum growth inhibition assay (Pf-LDH); type: cell-based; settings: Plasmodium falciparum, Erythrocyte; P. falciparum 3D7 infected erythrocytes, 72 h incubation, PfLDH readout
Summary of the method: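 P. falciparum 3D7 (chloroquine-sensitive) at 0.25% parasitemia and 2% hematocrit was incubated with compound for 72 h at 37° C under 4% CO2/3% O2/93% N2. After freeze-thaw, PfLDH activity was read at 650 nm with lactate/APAD/NBT/diaphorase mix (pH 8.0).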

T1 sequence (Q13547 whole entry): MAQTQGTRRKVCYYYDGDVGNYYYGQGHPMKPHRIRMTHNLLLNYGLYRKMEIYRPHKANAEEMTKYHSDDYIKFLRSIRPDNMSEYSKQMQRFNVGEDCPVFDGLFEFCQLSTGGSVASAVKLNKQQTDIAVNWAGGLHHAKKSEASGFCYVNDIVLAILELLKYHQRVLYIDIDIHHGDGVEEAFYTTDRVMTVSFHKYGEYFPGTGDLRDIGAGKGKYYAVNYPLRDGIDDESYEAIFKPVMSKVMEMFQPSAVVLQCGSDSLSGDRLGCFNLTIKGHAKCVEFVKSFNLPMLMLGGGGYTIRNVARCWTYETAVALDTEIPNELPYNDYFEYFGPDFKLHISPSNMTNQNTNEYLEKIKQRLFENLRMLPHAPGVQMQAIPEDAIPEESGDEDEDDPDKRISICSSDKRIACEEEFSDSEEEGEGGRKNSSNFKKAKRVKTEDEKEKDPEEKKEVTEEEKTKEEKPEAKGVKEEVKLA

Row | Compound | IC50 (human HDAC1) [nM] | EC50 [1] [nM]
1 | CNC(=O)CCCCC[C@H](NC(=O)C12CCN(CC1)CC2)c1ncc(-c2cc3ccccc3nc2OC)[nH]1 [Entry 177, (S)-N-(1-(5-(2-methoxyquinolin-3-yl)-1H-imidazol-2-yl)-7-(methylamino)-7-oxo-heptyl)quinuclidine-4-carboxamide] | < 1000 | < 1000
2 | CNC(=O)CCCCC[C@H](NC(=O)C12CCN(CC1)CC2)c1ncc(-c2ccc(Cl)c(C)c2)[nH]1 [Entry 181, (S)-N-(1-(5-(4-chloro-3-methylphenyl)-1H-imidazol-2-yl)-7-(methylamino)-7-oxo-heptyl)quinuclidine-4-carboxamide] | 1000 to 5000 | > 5000
3 | CNC(=O)CCCCC[C@H](NC(=O)OCc1ccccc1)c1ncc(-c2ccc(-c3ccn(C)n3)cc2)[nH]1 [Entry 182, (S)-benzyl(1-(5-(4-(1-methyl-1H-pyrazol-3-yl)phenyl)-1H-imidazol-2-yl)-7-(methylamino)-7-oxoheptyl)carbamate] | 1000 to 5000 | 1000 to 5000
4 | CNC(=O)CCCCC[C@H](NC(=O)c1ccc(N2CC(=O)NC2=O)cc1)c1ncc(-c2cc3ccccc3nc2OC)[nH]1 [Entry 183, (S)-4-(2,4-dioxoimidazolidin-1-yl)-N-(1-(5-(2-methoxyquinolin-3-yl)-1H-imidazol-2-yl)-7-(methylamino)-7-oxoheptyl)benzamide] | 1000 to 5000 | 1000 to 5000
5 | CNC(=O)CCCCC[C@H](NC(=O)Cn1cnnc1)c1ncc(-c2cc3ccccc3nc2OC)[nH]1 [Entry 184, (S)-7-(2-(4H-1,2,4-triazol-4-yl)acetamido)-7-(5-(2-methoxyquinolin-3-yl)-1H-imidazol-2-yl)-N-methylheptanamide] | 1000 to 5000 | 1000 to 5000
6 | CNC(=O)CCCCC[C@H](NC(=O)Cc1csc(-c2ccccc2)n1)c1ncc(-c2cc3ccccc3nc2OC)[nH]1 [Entry 185] | 1000 to 5000 | 1000 to 5000
7 | CNC(=O)CCCCC[C@H](NC(=O)C1CCCO1)c1ncc(-c2cc3ccccc3nc2OC)[nH]1 (stereo partly drawn) [Entry 187, N-((S)-1-(5-(2-methoxyquinolin-3-yl)-1H-imidazol-2-yl)-7-(methylamino)-7-oxo-heptyl)tetra-hydrofuran-2-carboxamide] | > 5000 | > 5000
8 | CNC(=O)CCCCC[C@H](NC(=O)c1cncs1)c1ncc(-c2cccc(-c3cc[nH]n3)c2)[nH]1 [Entry 188, (S)-N-(1-(5-(3-(1H-pyrazol-3-yl)phenyl)-1H-imidazol-2-yl)-7-(methylamino)-7-oxoheptyl)thiazole-5-carboxamide] | > 5000 | 1000 to 5000
9 | CNC(=O)CCCCC[C@H](NC(=O)c1cc(C(C)C)on1)c1ncc(-c2ccc3ccncc3c2)[nH]1 [Entry 189, (S)-5-isopropyl-N-(1-(5-(isoquinolin-7-yl)-1H-imidazol-2-yl)-7-(methylamino)-7-oxoheptyl)isoxazole-3-carboxamide] | 1000 to 5000 | 1000 to 5000
10 | CNC(=O)CCCCC[C@H](NC(=O)c1cncs1)c1ncc(-c2ccc3c(cnn3C)c2)[nH]1 [Entry 191, (S)-N-(1-(5-(1-methyl-1H-indazol-5-yl)-1H-imidazol-2-yl)-7-(methylamino)-7-oxoheptyl)thiazole-5-carboxamide] | 1000 to 5000 | < 1000
11 | CNC(=O)CCCCC[C@H](NC(=O)c1cncs1)c1ncc(-c2ccc(-c3ccccc3)nc2OC)[nH]1 [Entry 192, (S)-N-(1-(5-(2-methoxy-6-phenylpyridin-3-yl)-1H-imidazol-2-yl)-7-(methylamino)-7-oxoheptyl)thiazole-5-carboxamide] | > 5000 | 1000 to 5000
12 | CNC(=O)CCCCC[C@H](NC(=O)c1ccc(N2CC(=O)NC2=O)cc1)c1ncc(-c2ccc(-n3cccn3)cc2)[nH]1 [Entry 195, (S)-N-(1-(5-(4-(1H-pyrazol-1-yl)phenyl)-1H-imidazol-2-yl)-7-(methylamino)-7-oxoheptyl)-4-(2,4-dioxoimidazolidin-1-yl)benzamide] | > 5000 | 1000 to 5000
13 | CNC(=O)CCCCC[C@H](NC(=O)c1cncs1)c1ncc(-c2ccc(-c3cccnc3)cc2)[nH]1 [Entry 196, (S)-N-(7-(methylamino)-7-oxo-1-(5-(4-(pyridin-3-yl)phenyl)-1H-imidazol-2-yl)heptyl)thiazole-5-carboxamide] | 1000 to 5000 | 1000 to 5000
14 | CNC(=O)CCCCC[C@H](NC(=O)c1csc(-c2cccnc2)n1)c1ncc(-c2ccc3ccccc3c2)[nH]1 [Entry 197, (S)-N-(7-(methylamino)-1-(5-(naphthalen-2-yl)-1H-imidazol-2-yl)-7-oxoheptyl)-2-(pyridin-3-yl)thiazole-4-carboxamide] | > 5000 | 1000 to 5000
15 | CNC(=O)CCCCC[C@H](NC(=O)C1CC(=O)Nc2ccccc21)c1ncc(-c2ccc3ccccc3c2)[nH]1 (stereo partly drawn) [Entry 198, N-((S)-7-(methylamino)-1-(5-(naphthalen-2-yl)-1H-imidazol-2-yl)-7-oxoheptyl)-2-oxo-1,2,3,4-tetrahydroquinoline-4-carboxamide] | 1000 to 5000 | < 1000
16 | CNC(=O)CCCCC[C@H](NC(=O)CC1=CSC2=NCCCN12)c1ncc(-c2cc3ccccc3nc2OC)[nH]1 [Entry 201, (S)-7-(2-(6,7-dihydro-5H-thiazolo[3,2-a]pyrimidin-3-yl)acetamido)-7-(5-(2-methoxyquinolin-3-yl)-1H-imidazol-2-yl)-N-methylheptanamide] | 1000 to 5000 | < 1000
17 | CNC(=O)CCCCC[C@H](NC(=O)CC1=CSC2=NCCCN12)c1ncc(-c2ccc3ccccc3c2)[nH]1 [Entry 202, (S)-7-(2-(6,7-dihydro-5H-thiazolo[3,2-a]pyrimidin-3-yl)acetamido)-N-methyl-7-(5-(naphthalen-2-yl)-1H-imidazol-2-yl)heptanamide] | 1000 to 5000 | < 1000

The remaining lines, values ahead:

Row | IC50 (human HDAC1) [nM] | EC50 [1] [nM] | Compound
18 | 1000 to 5000 | 1000 to 5000 | CNC(=O)CCCCC[C@H](NC(=O)c1cncs1)c1ncc(-c2ccc3cc[nH]c3c2)[nH]1 [Entry 173, (S)-N-(1-(5-(1H-indol-6-yl)-1H-imidazol-2-yl)-7-(methylamino)-7-oxoheptyl)thiazole-5-carboxamide]
19 | < 1000 | 1000 to 5000 | COc1ccc2[nH]c(C)c(CC(=O)N[C@@H](CCCCCC(N)=O)c3nnc(-c4ccc5ccccc5c4)o3)c2c1 [Entry 174, (S)-7-(2-(5-methoxy-2-methyl-1H-indol-3-yl)acetamido)-7-(5-(naphthalen-2-yl)-1,3,4-oxadiazol-2-yl)heptanamide]
20 | < 1000 | < 1000 | CNC(=O)CCCCC[C@H](NC(=O)c1cccnc1)c1ncc(-c2ccc3ccccc3c2)[nH]1 [Entry 175, (S)-N-(7-(methylamino)-1-(5-(naphthalen-2-yl)-1H-imidazol-2-yl)-7-oxo-heptyl)nicotinamide]
21 | < 1000 | 1000 to 5000 | CCN1CCCC(C(=O)N[C@@H](CCCCCC(=O)NC)c2ncc(-c3ccc4ccccc4c3)[nH]2)C1 (stereo partly drawn) [Entry 176, 1-ethyl-N-((S)-7-(methylamino)-1-(5-(naphthalen-2-yl)-1H-imidazol-2-yl)-7-oxo-heptyl)piperidine-3-carboxamide]
22 | 1000 to 5000 | > 5000 | CNC(=O)CCCCC[C@H](NC(=O)CN(C)C)c1ncc(-c2cc3ccccc3nc2OC)[nH]1 [Entry 179, (S)-7-(2-(dimethyl-amino)acetamido)-7-(5-(2-methoxyquinolin-3-yl)-1H-imidazol-2-yl)-N-methylheptanamide]
23 | 1000 to 5000 | 1000 to 5000 | CNC(=O)CCCCC[C@H](NC(=O)CCn1cncn1)c1ncc(-c2cc3ccccc3nc2OC)[nH]1 [Entry 180, (S)-7-(3-(1H-1,2,4-triazol-1-yl)propanamido)-7-(5-(2-methoxyquinolin-3-yl)-1H-imidazol-2-yl)-N-methyl-heptanamide]
24 | < 1000 | < 1000 | CNC(=O)CCCCC[C@H](NC(=O)CCc1c(C)nc2ncnn2c1C)c1ncc(-c2cc3ccccc3nc2OC)[nH]1 [Entry 186, (S)-7-(3-(5,7-dimethyl-[1,2,4]triazolo[1,5-a]pyrimidin-6-yl)propanamido)-7-(5-(2-methoxyquinolin-3-yl)-1H-imidazol-2-yl)-N-methylheptanamide]
25 | < 1000 | < 1000 | CNC(=O)CCCCC[C@H](NC(=O)c1cncs1)c1ncc(-c2ccc3cc(C(F)(F)F)ncc3c2)[nH]1 [Entry 190]
26 | < 1000 | < 1000 | CNC(=O)CCCCC[C@H](NC(=O)c1cncs1)c1ncc(-c2cc3ccccc3[nH]c2=O)[nH]1 [Entry 193, (S)-N-(7-(methylamino)-7-oxo-1-(5-(2-oxo-1,2-dihydroquinolin-3-yl)-1H-imidazol-2-yl)heptyl)thiazole-5-carboxamide]
27 | < 1000 | < 1000 | CNC(=O)CCCCC[C@H](NC(=O)c1cncs1)c1ncc(-c2ccc3cc(OC)ccc3c2)[nH]1 [Entry 194, (S)-N-(1-(5-(6-methoxynaphthalen-2-yl)-1H-imidazol-2-yl)-7-(methylamino)-7-oxoheptyl)thiazole-5-carboxamide]
28 | < 1000 | 1000 to 5000 | CNC(=O)CCCCC[C@H](NC(=O)CCc1cnn(C)c1)c1ncc(-c2ccc3ccccc3c2)[nH]1 [Entry 199, (S)-N-methyl-7-(3-(1-methyl-1H-pyrazol-4-yl)propanamido)-7-(5-(naphthalen-2-yl)-1H-imidazol-2-yl)heptanamide]
29 | < 1000 | 1000 to 5000 | CNC(=O)CCCCC[C@H](NC(=O)Cc1c(C)[nH]c2ccc(OC)cc12)c1nnc(-c2ccc3ccccc3c2)o1 [Entry 200, (S)-7-(2-(5-methoxy-2-methyl-1H-indol-3-yl)acetamido)-N-methyl-7-(5-(naphthalen-2-yl)-1,3,4-oxadiazol-2-yl)heptanamide]
